For 42 compounds, IC50 results are on record in US9745297B2, “Compounds as modulators of RORC” (Boehringer Ingelheim International GmbH, priority 2013, dated 2017).

This assay addresses T1, RORγt (Homo sapiens, UniProt P51449).
T1 construct: expressed in transfected cells
T1 sequence (P51449 269-508 limits assumed): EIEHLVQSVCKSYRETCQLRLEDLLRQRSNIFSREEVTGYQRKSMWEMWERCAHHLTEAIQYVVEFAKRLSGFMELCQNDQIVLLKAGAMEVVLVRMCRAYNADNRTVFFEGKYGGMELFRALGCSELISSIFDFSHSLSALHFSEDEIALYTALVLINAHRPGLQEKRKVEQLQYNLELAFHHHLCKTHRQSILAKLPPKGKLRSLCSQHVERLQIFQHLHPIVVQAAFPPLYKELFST
The assay is described as follows: RGA Assay: nuclear receptor transactivation assay, RORγt transactivation of a luciferase reporter. As to conditions: transiently transfected HEK 293 cells (pGL4.3 luc2P/GAL4UAS, pBIND Gal4DBD hRORC LBD), 20-24 hours incubation, luciferase readout. In kind it is cell-based. As for the experimental part: A nuclear receptor transactivation assay was performed to quantitate the ability of test compounds to inhibit RORγt transactivation of a luciferase reporter. A similar assay is described in: Khan et al., Bioorganic & Medicinal Chemistry Letters 23 (2013), 532-536. The system uses transiently transfected HEK 293 cells cotransfected with two plasmids (pGL4.3, luc2P/GAL4UAS/Hygro, and pBIND, Ga14DBD hRORC LBD1-3). The positive control is co-transiently transfected with both plasmids, and the negative control contains the pGL4.3 promoter sequence. Assays were assembled in 384 well plates where transiently transfected cells and test compound at varying concentrations were incubated for 20-24 hours. The next day, assays plates are taken out and equillibrated at RT for 20-30 minutes. Bright-Glo™ Luciferase Assay System is used to detect Luciferase production. After addition of Bright GLO detection reagent, the plates were incubated at RT for 20 minutes. The plates were read on an Envision plate reader to measure luminescence signal. The RLU signal is converted to POC relative to control and blank wells.
Compound Dilution Buffer:
Bright Glo Luciferase Assay System: Promega #E2620
Thaw lysis buffer provided in kit, add 100 mL lysis buffer to substrate powder.
Take `CNS(=O)(=O)c1ccc(CNC(=O)N2CC(C)(C)c3nc(-c4ccc(F)cc4C)ccc32)cc1` [Example 42]: the IC50 turned out to be 10 µM.
With `CCc1ncnc(C2CC2)c1-c1ccc2c(n1)C1(CCCC1)CN2C(=O)NCc1ccc(S(=O)(=O)CC)cc1` [Example 100], it took 0.22 µM to reach half-maximal inhibition (IC50).
Regarding `CCS(=O)(=O)c1ccc(CNC(=O)N2CC3(CCCC3)c3nc(-c4ncc(C)nc4C)ccc32)cc1` [Example 37], the IC50 was > 30 µM.
The figure for `CNC(=O)c1ccc(-c2ccc3c(n2)C2(CCCC2)CN3C(=O)NCc2ccc(S(C)(=O)=O)cc2)c(C)c1` [Example 8] is > 30 µM.
In turn, `CCS(=O)(=O)c1ccc(CNC(=O)N2CC3(CCCC3)c3nc(-c4c(C)ncnc4C(F)(F)F)ccc32)cc1` [Example 99] returned an IC50 of 0.36 µM.
For `CCS(=O)(=O)c1ccc(CNC(=O)N2CC3(CCCC3)c3cc(-c4cnc(OC)nc4C4CC4)ncc32)cc1` [Example 95], the IC50 is > 30 µM.
Under `CCS(=O)(=O)c1ccc(CNC(=O)N2CC3(CCCC3)c3nc(-c4c(C)ncnc4C)ccc32)cc1` [Example 24] stands 5.9 µM.
`CC1(C)CN(C(=O)NCc2ccc(S(C)(=O)=O)cc2)c2ccc(Oc3ccc(F)c(OC(F)(F)F)c3)nc21` [Example 48]: the IC50 was 6.6 µM.
Compound `COc1cc(C)c(-c2ccc3c(n2)C2(CCCC2)CN3C(=O)NCc2ccc(S(C)(=O)=O)cc2)cn1` [Example 58] showed an IC50 of 8 µM.
In the case of `CCS(=O)(=O)c1ccc(CNC(=O)N2CC3(CCCC3)c3nc(-c4cc(CN5CC[C@H](O)C5)ccc4C)ccc32)cc1` [Example 85], the IC50 is > 30 µM.
In the case of `CS(=O)(=O)c1ccc(CNC(=O)N2CC3(CCCC3)c3nc(Cl)ccc32)cc1` [Example 62], the IC50 is > 30 µM.
Compound `CCS(=O)(=O)c1ccc(CNC(=O)N2CC3(CCCC3)c3nc(-c4c(C(C)C)n[nH]c4C)ccc32)cc1` [Example 29] came in with an IC50 of 1.7 µM.
`Cc1cc(F)ccc1-c1ccc2c(n1)C(C)(C)CN2C(=O)NCc1ccc(S(C)(=O)=O)cc1` [Example 22]: the IC50 was > 30 µM.
The figure for `CCS(=O)(=O)c1ccc(CNC(=O)N2CC3(CCCC3)c3nc(-c4c(C)ncnc4C4CC4)ccc32)cc1` [Example 79] is 0.38 µM; for `CCS(=O)(=O)c1ccc(CNC(=O)N2CC3(CCCC3)c3nc(-c4c(C)nn(CCN(C)C)c4C)ccc32)cc1` [Example 28] it is > 30 µM.
The compound `CS(=O)(=O)c1ccc(CNC(=O)N2CC3(CCCC3)c3nc(-c4cnc(C#N)nc4C4CC4)ccc32)cc1` [Example 65] came in with an IC50 of 18 µM.
Take `CC(C)c1ncncc1-c1cc2c(cn1)N(C(=O)NCc1ccc(S(C)(=O)=O)cc1)CC2(C)C` [Example 88]: the IC50 was > 30 µM.
As to `COC1CCCN(c2ccc(-c3ccc4c(n3)C3(CCCC3)CN4C(=O)NCc3ccc(S(C)(=O)=O)cc3)c(C)n2)C1` (stereo not drawn) [Example 6], half-maximal inhibition (IC50) required 24 µM.
For the compound `CCS(=O)(=O)c1ccc(CNC(=O)N2CC3(CCCC3)c3nc(-c4ncc(C(F)(F)F)cn4)ccc32)cc1` [Example 38], the IC50 is > 30 µM.
In turn, `CCOc1ncnc(C2CC2)c1-c1ccc2c(n1)C1(CCCC1)CN2C(=O)NCc1ccc(S(C)(=O)=O)cc1` [Example 69] came in with an IC50 of 1.1 µM.
As to `CCS(=O)(=O)c1ccc(CNC(=O)N2CC3(CCCC3)c3nc(-c4c(OC)ncnc4C(F)(F)F)ccc32)cc1` [Example 74], the IC50 amounted to 0.31 µM.
The figure for `CCS(=O)(=O)c1ccc(CNC(=O)N2CC3(CCCC3)c3nc(-c4c(C5CC5)ncnc4C4CC4)ccc32)cc1` [Example 97] is 0.2 µM.
Compound `COCCOc1cc(C#N)ccc1CNC(=O)N1CC2(CCCC2)c2nc(-c3cncnc3C(C)C)ccc21` [Example 34] showed an IC50 of 11 µM.
Under `COc1cc(C)c(-c2ccc3c(n2)C2(CCCC2)CN3C(=O)NCc2ccc(C#N)cc2)cn1` [Example 47] stands 15 µM; under `CNS(=O)(=O)c1ccc(CNC(=O)N2CC3(CCCC3)c3nc(-c4ccc(F)cc4C)ccc32)cc1` [Example 1], 1.6 µM; under `COc1ccc(-c2cc3c(cn2)N(C(=O)NCc2ccc(S(C)(=O)=O)cc2)CC3(C)C)c(C(F)(F)F)c1` [Example 87], 3.9 µM.
Take `CC(C)c1ncncc1-c1ccc2c(n1)C1(CCCC1)CN2C(=O)NCc1ccc(S(C)(=O)=O)cc1` [Example 56]: the IC50 turned out to be 1.6 µM.
Under `CCS(=O)(=O)c1ccc(CNC(=O)N2CC3(CCCC3)c3nc(-c4cc(CN5CC[C@@H](O)C5)ccc4C)ccc32)cc1` [Example 84] stands > 30 µM; under `CCS(=O)(=O)c1ccc(CNC(=O)N2CC3(CCCC3)c3nc(-c4cn5ccnc5cc4C)ccc32)cc1` [Example 63], > 30 µM; under `CC(C)c1ncncc1-c1ccc2c(n1)C(C)(C)CN2C(=O)NCc1ccc(S(C)(=O)=O)cc1` [Example 20], 19 µM.
`CNS(=O)(=O)c1ccc(CNC(=O)N2CC(C)(C)c3nc(-c4ccc(O)cc4C)ccc32)cc1` [Example 43]: 8.5 µM corresponded to half-maximal inhibition (IC50).
The compound `CNS(=O)(=O)c1ccc(CNC(=O)N2CC(C)(C)c3nc(-c4c(OC)ncnc4C4CC4)ccc32)cc1` [Example 78] gave an IC50 of 2.4 µM.
Regarding `CCS(=O)(=O)c1ccc(CNC(=O)N2CC3(CCCC3)c3nc(-c4nc(C)cnc4C)ccc32)cc1` [Example 41], the IC50 was > 30 µM.
`CCS(=O)(=O)c1ccc(CNC(=O)N2CC3(CCCC3)c3nc(-c4cnc(C#N)nc4C4CC4)ccc32)cc1` [Example 64] yielded an IC50 of 16 µM.
Under `CNS(=O)(=O)c1ccc(CNC(=O)N2CC3(CCCC3)c3nc(-c4cncnc4C(C)C)ccc32)cc1` [Example 55] stands 1.1 µM; under `CCS(=O)(=O)c1ccc(CNC(=O)N2CC3(CCCC3)c3nc(-c4cc(CN5CC[C@@H](O)C5)ccc4C4CC4)ccc32)cc1` [Example 82], 7 µM; under `CCC1(C)CN(C(=O)NCc2ccc(S(=O)(=O)CC)cc2)c2ccc(-c3cncnc3C(C)C)nc21` (stereo not drawn) [Example 72], 2.8 µM.
The figure for `CS(=O)(=O)c1ccc(CNC(=O)N2CC3(CCCC3)c3nc(Oc4ccc(C(F)(F)F)nc4)ccc32)cc1` [Example 59] is > 30 µM; for `CNS(=O)(=O)c1ccc(CNC(=O)N2CC3(CCCC3)c3cc(-c4ccc(F)cc4C)ncc32)cc1` [Example 86] it is 2.6 µM; for `COc1ncnc(C(F)(F)F)c1-c1ccc2c(n1)C1(CCCC1)CN2C(=O)NCc1ccc(S(C)(=O)=O)cc1` [Example 75] it is 3.7 µM.
Under `CCS(=O)(=O)c1ccc(CNC(=O)N2CC3(CCCC3)c3nc(-c4cnc(N(C)C)nc4C(F)(F)F)ccc32)cc1` [Example 33] stands 1.2 µM.
For the compound `CCS(=O)(=O)c1ccc(CNC(=O)N2CC3(CCCC3)c3nc(-c4ccc(O)cc4C)ccc32)cc1` [Example 15], the IC50 came out at 0.48 µM.
